# What was measured:
# nightshade = assay: Test C preemergence; format: in vivo, Solanum ptycanthum; settings: for Nightshade plant response rating: preemergence, scale 0 (no effect) to 100 (complete control)
# Excerpt: (§1) Seeds of plant species selected from blackgrass (Alopecurus myosuroides), Italian ryegrass (Lolium multiflorum), wheat, winter (winter wheat, Triticum aestivum), galium (catchweed bedstraw, Galium aparine), corn (Zea mays), large (Lg) crabgrass (Digitaria sanguinalis), giant foxtail (Setaria faberii), johnsongrass (Sorghum halepense), lambsquarters (Chenopodium album), morningglory (Ipomoea coccinea), yellow nutsedge (Cyperus esculentus), pigweed (Amaranthus retroflexus), ragweed (common ragweed, Ambrosia elatior), soybean (Glycine max), barnyardgrass (Echinochloa crus-galli), oilseed rape (Brassica napus), waterhemp (common waterhemp, Amaranthus rudis), kochia (Kochia scoparia), wild oat (Avena fatua), surinam grass (Brachiaria decumbens), foxtail, green (green foxtail, Setaria viridis), goosegrass (Eleusine indica), bromegrass, downy (downy bromegrass, Bromus tectorum), nightshade (eastern black nightshade, Solanum ptycanthum), cocklebur (common cocklebur, Xanthium strumarium), cupgrass, woolly (woolly cupgrass, Eriochloa villosa), bermudagrass (Cynodon dactylon), sunflower, (common oilseed sunflower, Helianthus annuus), Russian thistle (Salsola kali), and velvetleaf (Abutilon theophrasti) were planted into a blend of loam soil and sand and treated preemergence with test chemicals formulated in a non-phytotoxic solvent mixture which included a surfactant.
# (§2) At the same time, plants selected from these crop and weed species and also barley, winter (winter barley, Hordeum vulgare), windgrass (Apera spica-venti), chickweed (common chickweed, Stellaria media), deadnettle (henbit deadnettle, Lamium amplexicaule), and canarygrass (littleseed canarygrass, Phalaris minor) were planted in pots containing Redi-Earth® planting medium (Scotts Company, 14111 Scottslawn Road, Marysville, Ohio 43041) comprising spaghnum peat moss, vermiculite, wetting agent and starter nutrients and treated with postemergence applications of test chemicals formulated in the same manner. Plants ranged in height from 2 to 18 cm (1- to 4-leaf stage) for postemergence treatments. Treated plants and controls were maintained in a greenhouse for 13 to 15 days, after which time all species were compared to controls and visually evaluated. Plant response ratings, summarized in Table C, are based on a scale of 0 to 100 where 0 is no effect and 100 is complete control. A dash (-) response means no test result.
# goosegrass [1] = assay: Test C postemergence; format: in vivo, Eleusine indica; settings: for Plant response rating (0 to 100), Goosegrass: postemergence; for Plant response rating, Goosegrass: Postemergence, scale 0 to 100 (0 no effect, 100 complete control)
# Excerpt: as §1, §2
# sunflower = assay: Test C preemergence; format: in vivo, Helianthus annuus; settings: for Sunflower plant response rating: preemergence, scale 0 (no effect) to 100 (complete control)
# Excerpt: as §1, §2
# smartweed = assay: Test E postemergence; format: in vivo, ladysthumb smartweed
# Excerpt: Seeds of plant species selected from corn (Zea mays), soybean (Glycine max), velvetleaf (Abutilon theophrasti), lambsquarters (Chenopodium album), wild poinsettia (Euphorbia heterophylla), palmer pigweed (Amaranthus palmeri), waterhemp (common waterhemp, Amaranthus rudis), surinam grass (Brachiaria decumbens), large (Lg) crabgrass (Digitaria sanguinalis), Brazilian crabgrass (Digitaria horizontalis), fall panicum (Panicum dichotomiflorum), giant foxtail (Setaria faberii), green foxtail (Setaria viridis), goosegrass (Eleusine indica), johnsongrass (Sorghum halepense), ragweed (common ragweed, Ambrosia elatior), barnyardgrass (Echinochloa crus-galli), sandbur (southern sandbur, Cenchrus echinatus), arrowleaf sida (Sida rhombifolia), Italian ryegrass (Lolium multiflorum), dayflower (Virginia (VA) dayflower, Commelina virginica), field bindweed (Convolvulus arvensis), morningglory (Ipomoea coccinea), nightshade (eastern black nightshade, Solanum ptycanthum), kochia (Kochia scoparia), yellow nutsedge (Cyperus esculentus), cocklebur (common cocklebur, Xanthium strumarium), smartweed (ladysthumb smartweed, and hairy beggarticks (Bidens pilosa), were planted into a silt loam soil and treated preemergence with test chemicals formulated in a non-phytotoxic solvent mixture which included a surfactant.
# At the same time, plants from these crop and weed species and also horseweed (Canada horseweed, Conyza canadensis), waterhemp_RES1, (ALS & Triazine resistant common waterhemp, Amaranthus rudis), and waterhemp_RES2, (ALS & HPPD resistant common waterhemp, Amaranthus rudis) were planted in pots containing Redi-Earth® planting medium (Scotts Company, 14111 Scottslawn Road, Marysville, Ohio 43041) comprising spaghnum peat moss, vermiculite, wetting agent and starter nutrients were treated with postemergence applications of test chemicals formulated in the same manner. Plants ranged in height from 2 to 18 cm for postemergence treatments (1- to 4-leaf stage). Treated plants and controls were maintained in a greenhouse for 14 to 21 days, after which time all species were compared to controls and visually evaluated. Plant response ratings, summarized in Table E, are based on a scale of 0 to 100 where 0 is no effect and 100 is complete control. A dash (-) response means no test result.
# goosegrass [2] = assay: Test C preemergence; format: in vivo, Eleusine indica; settings: for Goosegrass plant response rating: preemergence, scale 0 (no effect) to 100 (complete control)
# Excerpt: as §1, §2
# surinam grass [3] = assay: Test C postemergence; format: in vivo, Brachiaria decumbens; settings: for Plant response rating, Surinam Grass: Postemergence, scale 0 to 100 (0 no effect, 100 complete control)
# In short: (§3)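 Visual ratings on a 0–100 scale (100 = complete control) were made versus untreated controls after 13–15 greenhouse days. Chemicals in a surfactant-containing non-phytotoxic solvent were applied either preemergence to seeds in loam–sand soil or postemergence to 1- to 4-leaf plants 2–18 cm tall.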
# barley, winter = assay: Test C postemergence; format: in vivo, Hordeum vulgare; settings: for Plant response rating (0 to 100), Barley: postemergence; for Plant response rating, Barley: Postemergence, scale 0 to 100 (0 no effect, 100 complete control)
# In short: as §3
# surinam grass [4] = assay: Test C preemergence; format: in vivo, Brachiaria decumbens; settings: for Surinam Grass plant response rating: preemergence, scale 0 (no effect) to 100 (complete control)
# Excerpt: as §1, §2
# cocklebur = assay: Test C preemergence; format: in vivo, Xanthium strumarium; settings: for Cocklebur plant response rating: preemergence, scale 0 (no effect) to 100 (complete control)
# Excerpt: as §1, §2
# canarygrass = assay: Test C postemergence; format: in vivo, Phalaris minor; settings: for Plant response rating (0 to 100), Canarygrass: postemergence; for Plant response rating, Canarygrass: Postemergence, scale 0 to 100 (0 no effect, 100 complete control)
# In short: as §3
# cupgrass, woolly [5] = assay: Test C postemergence; format: in vivo, Eriochloa villosa; settings: for Plant response rating (0 to 100), Cupgrass, Woolly: postemergence; for Plant response rating, Cupgrass, Woolly: Postemergence, scale 0 to 100 (0 no effect, 100 complete control)
# In short: as §3
# bromegrass, downy = assay: Test C preemergence; format: in vivo, Bromus tectorum; settings: for Bromegrass, Downy plant response rating: preemergence, scale 0 (no effect) to 100 (complete control)
# Excerpt: as §1, §2
# cupgrass, woolly [6] = assay: Test C preemergence; format: in vivo, Eriochloa villosa; settings: for Cupgrass, Woolly plant response rating: preemergence, scale 0 (no effect) to 100 (complete control)
# Excerpt: as §1, §2
# [7] = Preemergence, 31 g ai/ha, scale 0 to 100, 0 no effect, 100 complete control
structure (smiles),measurement,setting,value
"Clc1cnc(Oc2ccccc2-n2cc(Br)cn2)nc1 [Compound 7, 2-[2-(4-bromo-1H-pyrazol-1-yl)phenoxy]-5-chloropyrimidine]",Nightshade plant response rating,nightshade; 62 g ai/ha,95
same,Nightshade plant response rating,nightshade; 125 g ai/ha,95
same,Nightshade plant response rating,nightshade; 250 g ai/ha,98
same,"Plant response rating, Nightshade",nightshade; [7],80
same,"Plant response rating (0 to 100), Goosegrass",goosegrass [1]; 125 g ai/ha,15
same,"Plant response rating (0 to 100), Goosegrass",goosegrass [1]; 250 g ai/ha,15
same,"Plant response rating, Goosegrass","goosegrass [1]; 31 g ai/ha, 13 to 15 days",0
same,"Plant response rating, Goosegrass",goosegrass [1]; 62 g ai/ha,5
same,Sunflower plant response rating,sunflower; 62 g ai/ha,10
same,Sunflower plant response rating,sunflower; 125 g ai/ha,10
same,Sunflower plant response rating,sunflower; 250 g ai/ha,10
same,"Plant response rating, Sunflower",sunflower; [7],0
same,"Plant response rating, Smartweed","smartweed; Postemergence, 31 g ai/ha, scale 0 to 100",40
same,"Plant response rating, Smartweed","smartweed; Postemergence, 62 g ai/ha, scale 0 to 100",70
same,"Plant response rating, Smartweed","smartweed; Postemergence, 125 g ai/ha, scale 0 to 100",100
same,"Plant response rating, Smartweed","smartweed; postemergence, 8 g ai/ha, scale 0 to 100, 0 no effect, 100 complete control",15
same,"Plant response rating, Smartweed","smartweed; postemergence, 16 g ai/ha, scale 0 to 100, 0 no effect, 100 complete control",30
same,Goosegrass plant response rating,goosegrass [2]; 62 g ai/ha,85
same,Goosegrass plant response rating,goosegrass [2]; 125 g ai/ha,95
same,Goosegrass plant response rating,goosegrass [2]; 250 g ai/ha,100
same,"Plant response rating, Goosegrass",goosegrass [2]; [7],65
same,"Plant response rating (0 to 100), Surinam Grass","surinam grass [3]; 125 g ai/ha, postemergence",30
same,"Plant response rating, Surinam Grass","surinam grass [3]; 31 g ai/ha, 13 to 15 days",15
same,"Plant response rating, Surinam Grass",surinam grass [3]; 62 g ai/ha,20
same,"Plant response rating (0 to 100), Barley","barley, winter; 125 g ai/ha",10
same,"Plant response rating (0 to 100), Barley","barley, winter; 250 g ai/ha",15
same,"Plant response rating, Barley","barley, winter; 31 g ai/ha, 13 to 15 days",0
same,"Plant response rating, Barley","barley, winter; 62 g ai/ha",0
same,Surinam Grass plant response rating,surinam grass [4]; 62 g ai/ha,5
same,Surinam Grass plant response rating,surinam grass [4]; 125 g ai/ha,30
same,Surinam Grass plant response rating,surinam grass [4]; 250 g ai/ha,85
same,"Plant response rating, Surinam Grass",surinam grass [4]; [7],0
same,Cocklebur plant response rating,cocklebur; 62 g ai/ha,5
same,Cocklebur plant response rating,cocklebur; 125 g ai/ha,5
same,Cocklebur plant response rating,cocklebur; 250 g ai/ha,5
same,"Plant response rating, Cocklebur",cocklebur; [7],0
same,"Plant response rating (0 to 100), Canarygrass",canarygrass; 125 g ai/ha,30
same,"Plant response rating (0 to 100), Canarygrass",canarygrass; 250 g ai/ha,80
same,"Plant response rating, Canarygrass","canarygrass; 31 g ai/ha, 13 to 15 days",5
same,"Plant response rating, Canarygrass",canarygrass; 62 g ai/ha,10
same,"Plant response rating (0 to 100), Cupgrass, Woolly","cupgrass, woolly [5]; 125 g ai/ha",25
same,"Plant response rating (0 to 100), Cupgrass, Woolly","cupgrass, woolly [5]; 250 g ai/ha",25
same,"Plant response rating, Cupgrass, Woolly","cupgrass, woolly [5]; 31 g ai/ha, 13 to 15 days",10
same,"Plant response rating, Cupgrass, Woolly","cupgrass, woolly [5]; 62 g ai/ha",20
same,"Bromegrass, Downy plant response rating","bromegrass, downy; 62 g ai/ha",5
same,"Bromegrass, Downy plant response rating","bromegrass, downy; 125 g ai/ha",45
same,"Bromegrass, Downy plant response rating","bromegrass, downy; 250 g ai/ha",75
same,"Plant response rating, Bromegrass, Downy","bromegrass, downy; [7]",0
same,"Cupgrass, Woolly plant response rating","cupgrass, woolly [6]; 62 g ai/ha",55
same,"Cupgrass, Woolly plant response rating","cupgrass, woolly [6]; 125 g ai/ha",98
same,"Cupgrass, Woolly plant response rating","cupgrass, woolly [6]; 250 g ai/ha",98
same,"Plant response rating, Cupgrass, Woolly","cupgrass, woolly [6]; [7]",15

# Source: patent publication US9695155B2, “Herbicidal substituted pyrimidinyloxy benzene compounds” (E. I. DU PONT DE NEMOURS AND COMPANY, priority 2013, dated 2017)
